Measurements from US20040143021A1, “Compositions and methods for improving recovery after general anesthesia” (priority 2003, published 2004).

How the values were obtained:
[1] = tested on: patients scheduled for same day surgery under general anesthesia; assay: Randomized, double blind, parallel group clinical study of modafinil vs placebo on recovery after general anesthesia (symptom evaluation by verbal analog scale); assay type: in vivo; details: for Appetite, verbal analog score, mean (SD) / Ease of sleep, verbal analog score, mean (SD) / Energy, verbal analog score, mean (SD) / Exhaustion, verbal analog score, mean (SD) / Fatigue, verbal analog score, mean (SD) / Nausea, verbal analog score, mean (SD) / Reading ability, verbal analog score, mean (SD) / Restless, verbal analog score, mean (SD) / Tense, verbal analog score, mean (SD) / Worn out, verbal analog score, mean (SD): VAS 0 to 10; for Operative distress, point value: total of 60 possible points
Source text: Informed consents were obtained from patients scheduled to undergo outpatient surgical procedures under general anesthesia to participate in this prospective study approved by an institutional review board. In this study, the clinical activity of modafinil to improve recovery post-anesthesia was examined in a randomized, double blind, parallel group study. Thirty-four (34) patients scheduled for same day surgery under general anesthesia participated in this prospective study. Patients were American Society of Anesthesiology physical status I-II, with a Body-Mass-Index <40 without any known significant renal, hepatic, cardiovascular, neurological, gastrointestinal, endocrine, hematologic, or pulmonary diseases as judged by the investigator. A history of epilepsy, alcoholism, or chronic use of opioids also excluded the patients from participation in this study. Patients were asked to rate various symptoms they had experienced over the previous 24-hour period using a verbal analog scale (VAS) rating of 0 to 10, as well as discrete scores when indicated. The symptom evaluation included headache, dizziness, level of energy, appetite, nausea, pain, vomiting, degree of being tense, clear-headedness, restlessness, fatigue, exhaustion, quality of sleep during the previous night, need for the help from a caregiver, the ability to read, comprehend, and communicate.
Anesthetic management of the patients was at the discretion of the attending anesthesiologist. Patients were monitored post-operatively, and cared for according to institutional standards. Once the patient was able to tolerate oral intake of liquids, the study drug (modafinil, 200 mg) or placebo was administered, randomly, with a sip of water. Patients were discharged according to institutional standards. Patients were contacted 24 (+1) hours after dosing for symptom evaluation and the same questions were asked. Patients were also asked whether the study drug they received had any beneficial effect. If the patient felt they received a benefit from the study drug they were asked to describe the benefit in their own words.
The study group included 24 female and 10 male patients (n=17 per group). The demographics of the groups are shown below in Table 1. There were no significant differences in age, height, weight, or gender distribution between the two groups.
Almost all patients had received the same type of anesthetic management including propofol, a narcotic, a volatile agent, a muscle relaxant, nitrous oxide, and oxygen. Patients had undergone mostly orthopedic or gynecological surgical procedures. Surgical procedures or the exact doses of anesthetics were not compared between the groups.
There were no significant differences in preoperative symptoms reported between the two groups (modafinil versus placebo; Table 2). As expected, patients were tenser, more restless, and less relaxed pre-operatively (in both groups). […] Operative distress was defined as a lack of energy, presence of feeling worn out, fatigue, exhaustion, mental clouding, and problem reading (comprehending) (total of 60 possible points to define the most severe Operative distress). In the modafinil group, the point value for operative distress was 10.5±6.0, preoperatively, increasing to 11.3±9.1, postoperatively. The corresponding values for operative distress in the placebo group were 13.4±11.9, pre-operatively, and 21.0±13.8, post-operatively.

[2] = tested on: sleep-deprived pilots; details: in vivo; cited from earlier work
[3] = tested on: patients with excessive daytime sleepiness associated with narcolepsy; details: clinical trials, 200 mg/d and 400 mg/d; cited from earlier work
[4] = post-operative minus pre-operative, modafinil 200 mg
[5] = post-operative, 24 h after modafinil 200 mg oral, n = 17
[6] = pre-operative (before dosing), n = 17
[7] = share of patients, modafinil 200 mg, n = 17

In the case of NC(=O)C[S+]([O-])C(c1ccccc1)c1ccccc1 (stereo not drawn) [Modafinil], the “Patients expressing themes of "alertness" and "energy" as benefit of study drug” value ([1]; content analysis of comments, modafinil group, p<0.05 vs 18% placebo) is reported as 71%, the “Exhaustion postoperatively compared with placebo” value ([1]; modafinil 200 mg vs placebo) is reported as “significantly less exhausted” and the “Fatigue postoperatively compared with placebo” value ([1]; modafinil 200 mg vs placebo) is reported as “significantly less fatigue”. For the same compound, the “Feeling worn out postoperatively compared with placebo” value ([1]; modafinil 200 mg vs placebo) was “significantly less worn out”, the “Feelings of alertness and energy in patients recovering from general anesthesia” value ([1]; modafinil 200 mg vs placebo) was “significantly improved feelings of alertness, and energy” and the “Post-operative distress compared with placebo” value ([1]; modafinil 200 mg vs placebo) was “significantly less post-operative distress”. The “Patients complaining of not being able to fall asleep at night” value ([1]; modafinil group (n = 17), four in placebo group) was “one”, the “Patients complaining of moderate-to-severe fatigue” value ([1]; modafinil treatment group vs 65% placebo) was 12% and the “Appetite, verbal analog score, difference” value [1, 4] was −1.8. The “Ease of sleep, verbal analog score, difference” value [1, 4] was −0.3, the “Energy, verbal analog score, difference” value [1, 4] was −1.3 and the “Exhaustion, verbal analog score, difference” value [1, 4] was 0.2. The “Fatigue, verbal analog score, difference” value [1, 4] was −0.2, the “Nausea, verbal analog score, difference” value [1, 4] was 1.3 and the “Reading ability, verbal analog score, difference” value [1, 4] was 0.2. For the same compound, the “Restless, verbal analog score, difference” value [1, 4] was −2.0, the “Tense, verbal analog score, difference” value [1, 4] was −3.2 and the “Worn out, verbal analog score, difference” value [1, 4] was −0.6. The “Appetite, verbal analog score, mean (SD)” value [1, 5] was 6.1 (3.8), the “Ease of sleep, verbal analog score, mean (SD)” value [1, 5] was 6.2 (3.6) and the “Energy, verbal analog score, mean (SD)” value [1, 5] was 6.2 (3.5). For the same compound, the “Exhaustion, verbal analog score, mean (SD)” value [1, 5] was 2.4 (3.1), the “Fatigue, verbal analog score, mean (SD)” value [1, 5] was 1.4 (1.8) and the “Nausea, verbal analog score, mean (SD)” value [1, 5] was 1.9 (3.5). The “Reading ability, verbal analog score, mean (SD)” value [1, 5] was 9.2 (1.6), the “Restless, verbal analog score, mean (SD)” value [1, 5] was 2.5 (3.0) and the “Tense, verbal analog score, mean (SD)” value [1, 5] was 2.2 (3.2). The “Worn out, verbal analog score, mean (SD)” value [1, 5] was 2.9 (2.4), the “Mental limitation to resume activity, verbal analog score, mean (SD)” value [1, 5] was 0.6 (1.6) and the “Operative distress, point value” ([1]; postoperatively, modafinil 200 mg) was 11.3±9.1. For the same compound, the “Appetite, verbal analog score, mean (SD)” value [1, 6] was 7.9 (2.9), the “Ease of sleep, verbal analog score, mean (SD)” value [1, 6] was 6.5 (3.3) and the “Energy, verbal analog score, mean (SD)” value [1, 6] was 7.5 (2.8). The “Exhaustion, verbal analog score, mean (SD)” value [1, 6] was 2.2 (3.3), the “Fatigue, verbal analog score, mean (SD)” value [1, 6] was 1.6 (2.7) and the “Nausea, verbal analog score, mean (SD)” value [1, 6] was 0.6 (2.4). The “Reading ability, verbal analog score, mean (SD)” value [1, 6] was 9.0 (2.1), the “Restless, verbal analog score, mean (SD)” value [1, 6] was 4.5 (3.7) and the “Tense, verbal analog score, mean (SD)” value [1, 6] was 5.4 (3.6). For the same compound, the “Worn out, verbal analog score, mean (SD)” value [1, 6] was 3.5 (3.4), the “Operative distress, point value” ([1]; preoperatively, modafinil group) was 10.5±6.0 and the “Fatigue, % with rating > 3” value [1, 7] was 18%. For the same compound, the “Fatigue, % with rating ≧ 5” value [1, 7] was 12%, the “Worn out, % with rating > 3” value [1, 7] was 41% and the “Worn out, % with rating ≧ 5” value [1, 7] was 29%. The “Fatigue and confusion in sleep-deprived pilots” value [2] was “reduce fatigue and confusion”, the Daytime wakefulness [3] was “significantly improve daytime wakefulness” and the “Effect on nighttime sleep” value [3] was “without affecting nighttime sleep”.
